Test results: ChEMBL document CHEMBL6103560, “MoA Studies of the TEAD P-Site Binding Ligand MSC-4106 and Its Optimization to TEAD1-Selective Amide M3686” (J Med Chem, 2025)
Active and inactive are the calls of the source. The calls are words filed in the database; no cut-off is given here.

Assays:
[1] = target: Transcriptional enhancer factor TEF-1 (Homo sapiens) (UniProt P28347); test: Inhibition of P-FLAG-tagged TEAD1 palmitoylation (unknown origin) transfected in HEK293 cells at 0.001 to 10 uM incubated for 6 hrs by Western blot analysis; type: cell-based; settings: dose 0.001-10 µM
NCI-H226 [2] = test: Antitumor activity against human NCI-H226 cells xenografted in female CEA BRG mouse model assessed as reduction in tumor volume administered orally once daily for 31 days; type: functional; settings: dose 3-30 mg/kg, route po, time 31.0 day
CAKI-1 [3] = test: Antiproliferative activity against YAP-dependent human CAKI-1 cells assessed as efficacy incubated for 4 days by CyQuant assay relative to control; type: functional; settings: time 4 day
[4] = Inhibition of CYR61 expression in human NCI-H226 cells incubated for 24 hrs by qPCR analysis; type: functional, cell-based; settings: NCI-H226, 24 h
RL95-2 [5] = test: Antiproliferative activity against YAP-dependent human RL95-2 cells incubated for 4 days by CyQuant assay; type: functional, cell-based; settings: RL95-2, 96 h
CAL-27 [6] = test: Antiproliferative activity against YAP-dependent human CAL-27 cells assessed as efficacy incubated for 4 days by CyQuant assay relative to control; type: functional; settings: time 4 day
Detroit 562 [7] = test: Antiproliferative activity against YAP-dependent human Detroit 562 cells incubated for 4 days by CyQuant assay; type: functional, cell-based; settings: Detroit 562, 96 h
NCI-H226 [8] = test: Downregulation of CTGF gene expression in human NCI-H226 cells incubated for 6 to 24 hrs by qPCR analysis; type: functional, cell-based; settings: time lower 6.0 hrs, time upper […]
NCI-H292 [9] = test: Antiproliferative activity against YAP-dependent human NCI-H292 cells assessed as efficacy incubated for 4 days by CyQuant assay relative to control; type: functional; settings: time 4 day
SK-HEP1 [10] = test: Antiproliferative activity against YAP-dependent human SK-HEP1 cells assessed as efficacy incubated for 4 days by CyQuant assay relative to control; type: functional; settings: time 4 day
[11] = Inhibition of CTGF expression in human NCI-H226 cells incubated for 24 hrs by qPCR analysis; type: functional, cell-based; settings: NCI-H226, 24 h
NCI-H226 [12] = test: Antiproliferative activity against YAP-dependent human NCI-H226 cells incubated for 4 days by CellTiter-Glo 2.0 cell viability assay; type: functional, cell-based; settings: NCI-H226, 96 h
CAL-27 [13] = test: Antiproliferative activity against YAP-dependent human CAL-27 cells incubated for 4 days by CyQuant assay; type: functional, cell-based; settings: CAL-27, 96 h
SK-HEP1 [14] = test: Antiproliferative activity against YAP-dependent human SK-HEP1 cells incubated for 4 days by CyQuant assay; type: functional, cell-based; settings: SK-HEP1, 96 h
NCI-H226 [15] = test: Antitumor activity against human NCI-H226 cells xenografted in female CEA BRG mouse model assessed as reduction in tumor volume at 15 mg/kg, po administered twice daily for 31 days; type: functional, organism-based; settings: time 31.0 day
NCI-H226 [16] = test: Downregulation of CYR61 gene expression in human NCI-H226 cells incubated for 6 to 24 hrs by qPCR analysis; type: functional, cell-based; settings: time lower 6.0 hrs, time upper […]
MSTO-211H [17] = test: Antiproliferative activity against YAP-dependent human MSTO-211H cells incubated for 4 days by CyQuant assay; type: functional, cell-based; settings: 96 h
MSTO-211H [18] = test: Antiproliferative activity against YAP-dependent human MSTO-211H cells assessed as efficacy incubated for 4 days by CyQuant assay relative to control; type: functional; settings: time 4 day
NCI-H226 [19] = test: Antiproliferative activity against YAP-dependent human NCI-H226 cells assessed as efficacy incubated for 4 days by CellTiter-Glo 2.0 cell viability assay relative to control; type: functional; settings: time 4 day
RL95-2 [20] = test: Antiproliferative activity against YAP-dependent human RL95-2 cells assessed as efficacy incubated for 4 days by CyQuant assay relative to control; type: functional; settings: time 4 day
CAKI-1 [21] = test: Antiproliferative activity against YAP-dependent human CAKI-1 cells incubated for 4 days by CyQuant assay; type: functional, cell-based; settings: CAKI-1, 96 h
[22] = Inhibition of TEAD(unknown origin)/YAP protein-protein interaction transfected in human SK-HEP1 cells incubated for 24 hrs by NanoLuc luciferase reporter assay; type: cell-based
NCI-H292 [23] = test: Antiproliferative activity against YAP-dependent human NCI-H292 cells incubated for 4 days by CyQuant assay; type: functional, cell-based; settings: NCI-H292, 96 h
Detroit 562 [24] = test: Antiproliferative activity against YAP-dependent human Detroit 562 cells assessed as efficacy incubated for 4 days by CyQuant assay relative to control; type: functional; settings: time 4 day
NCI-H226 [25] = test: Antitumor activity against human NCI-H226 cells xenografted in female CEA BRG mouse model assessed as reduction in tumor volume at 37.5 to 75 mg/kg, po administered once daily for 31 days; type: functional, organism-based; settings: dose 37.5-75 mg/kg, time 31.0 day
CAKI-2 = test: Antiproliferative activity against YAP-dependent human CAKI-2 cells incubated for 4 days by CyQuant assay; type: functional, cell-based; settings: CAKI-2, 96 h

Chain of Transcriptional enhancer factor TEF-1 (Homo sapiens) (P28347 whole entry): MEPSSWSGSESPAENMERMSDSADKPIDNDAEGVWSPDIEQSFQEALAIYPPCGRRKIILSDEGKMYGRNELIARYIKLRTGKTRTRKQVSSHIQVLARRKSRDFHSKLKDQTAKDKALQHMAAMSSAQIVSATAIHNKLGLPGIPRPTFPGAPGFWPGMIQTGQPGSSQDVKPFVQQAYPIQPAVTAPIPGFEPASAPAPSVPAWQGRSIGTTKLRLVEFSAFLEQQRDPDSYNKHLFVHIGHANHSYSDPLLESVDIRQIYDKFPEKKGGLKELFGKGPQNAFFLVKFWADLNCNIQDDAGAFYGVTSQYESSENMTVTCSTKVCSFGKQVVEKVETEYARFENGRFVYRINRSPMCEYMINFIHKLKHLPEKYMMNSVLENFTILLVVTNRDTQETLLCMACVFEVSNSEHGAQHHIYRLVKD

inhibition [1]: Active | IC50 [4]: 122 nM | IC50 [11]: 122 nM | IC50 (NCI-H226 [12]): 59 nM | IC50 (SK-HEP1 [14]): 11000 nM | IC50 [22]: 51 nM | IC50 (NCI-H292 [23]): 300 nM
SMILES: Cn1nc2c3cc(C(=O)N4CC[C@H](O)C4)ccc3n(-c3ccc(C(F)(F)F)cc3)c2n1
Activity (NCI-H226 [2]): Dose-dependent-effect | Efficacy (CAKI-1 [3]): 92% | IC50 (RL95-2 [5]): 9000 nM | Efficacy (CAL-27 [6]): 102% | IC50 (Detroit 562 [7]): 16000 nM | Activity (NCI-H226 [8]): Active | Efficacy (NCI-H292 [9]): 73% | Efficacy (SK-HEP1 [10]): 122% | IC50 (CAL-27 [13]): 11000 nM | Activity (NCI-H226 [15]): Active | Activity (NCI-H226 [16]): Active | IC50 (MSTO-211H [17]): 100 nM | Efficacy (MSTO-211H [18]): 51% | Efficacy (NCI-H226 [19]): 98% | Efficacy (RL95-2 [20]): 103% | IC50 (CAKI-1 [21]): 5000 nM | Efficacy (Detroit 562 [24]): 97% | Activity (NCI-H226 [25]): Active | IC50 (CAKI-2): > 30000 nM
